Assay results as given in patent US8097615B2, “Neurofibrillary labels” (Wista Laboratories Ltd., priority 2001, dated 2012).

Tests used:
tangle fragments = experiment: Competitive binding assay: displacement of primulin fluorescence from tangle fragments (ifI); design: species or system human; conditions: for competition with / displacement of other ligands at tangles: fluorescence end point
Description: IfI material was homogenised in a 0.2 ml glass homogeniser in PBS. To the suspension, test compounds were added to final concentrations ranging from 0.1% to 0.00001%. […] The suspensions were transferred to a glass slide, and examined by fluorescence microscopy across a range of fluorescence filter blocks, covering excitation and emission wavelengths between 380 nm and 570 nm. The end point sought in these observations was displacement of typical primulin fluorescence from tangle fragments.

tau-tau binding = molecular target: T1, tau-tau binding (Homo sapiens, UniProt P10636); experiment: Solid-phase tau-tau binding assay (dGA solid phase, dGAE liquid phase), tau Preparation 2; type: biochemical; conditions: Preparation 2
T1 construct: a truncated tau protein corresponding to the core fragment and terminating at Ala390-dGA; dGAE which terminates at Glu-391; made in house; host or cells: E. coli BL21 (DE3), pRK172; DE52 flow-through, P11 phosphocellulose, PEG concentration, no heat step (Preparation 2)
Description: Preparation 2 differs from Preparation 1 above in the following respects: (1) The concentration of cells at the sonication stage is increased by 5-fold. (2) A batchwise adsorption of non-tau proteins to DE52 is included. (3) The proteins are not subjected to heat treatment. (4) The final step involves concentration using polyethylene glycol.
Escherichia coli is grown in 2×TY medium (Oxoid) supplemented with ampicillin (50 micrograms per ml) to late-logarithmic phase. Cells from 5 liters of culture are harvested by centrifugation and the cell pellets frozen rapidly over liquid nitrogen. The pellets are taken up with 50 mM PIPES (pH 6.8) containing 1 mM EDTA, 1 mM dithiothreitol and 1 mM phenylmethylsulphonylfluoride (PMSF) and bacteria lysed by sonication (2×3 min) at 4 C. The mixture is centrifuged at 10,000 rpm for 20 min. The supernatant is rotated with 1 gram of Whatman DE52 for 3 hr at 4 C. The mixture is separated on a column and the flow-through material that fails to bind to DE52 is incubated for 3 hr at 4 C, with rotation, with 0.4 g of Whatman P11 (freshly regenerated according to manufacturer's recommendations). The column is washed with column buffer (50 mM PIPES, pH 6.8 containing 1 mM EGTA, 5 mM EDTA, 0.2 mM MgCl2, 5 mM β-mercaptoethanol and 1 mM PMSF). Tau protein is eluted stepwise with a 0.1 to 1 M gradient of KCl in column buffer. Fractions containing tau (determined by immunoassay) are pooled and dialysed against 80 mM PIPES (pH6.8) containing 1 mM EGTA, 1 mM MgCl2 and 5 mM β-mercatoethanol, using dialysis tubing with a molecular weight cut-off of 1,000. The dialysate is concentrated by applying polyethylene glycol 8000 to the outside of the sac for 2-3 hr. The final concentration of tau ranged from 3 to 10 mg per ml.
When the proteins dGA and dGAE were prepared as indicated above (“Preparation 2”), the properties of the tau-tau binding assay were altered relative to the properties obtained using the preparative method described in WO96/30766 (“Preparation 1”).
The assay is performed using 96 well PVC plates (Falcon Cat. No. 353912 are used), and the following steps:
1. 50 μl dGA (˜10 μg/ml) in carbonate buffer, incubate 1 h at 37° C.
(Carbonate buffer: 50 mM carbonate bicarbonate, pH 9.6 (Na2CO3 1.59 g/l, NaHCO3 2.93 g/l))
2. Wash plate in 0.05% Tween-20.
3. 200 μl PBS+2% Marvel, incubate 1 h at 37° C.
4. Rinse plate 2× in deionised water, then wash in 0.05% Tween-20.
5. 50 μl dGAE (˜10 μg/ml) plus drug in PBS+1% fish skin gelatin+0.05% Tween-20, incubate 1 h at 37° C.
6. Wash plate in 0.05% Tween-20.
7. 50 μl antibody 423 (1:10 dilution in PBS+2% Marvel), incubate 1 h at 37° C.
8. Rinse plate 2× in deionised water, then wash in 0.05% Tween-20.
9. 50 μl HRP-anti-mouse (1:1000 dilution in PBS+0.05% Tween-20), incubate 1 h at 37° C.
10. Wash plate in 0.05% Tween-20, then rinse 1× with deionised water.
11. 50 μl substrate solution, read immediately initial rate over 2 min in plate reader at OD650.
(Substrate solution: 50 mM sodium acetate, pH 5.0+TMB (1 ml/100 ml of a 10 mg/ml solution in DMSO)+H2O2 (10 μl/100 ml)).

T1 sequence (P10636 614-708 limits assumed): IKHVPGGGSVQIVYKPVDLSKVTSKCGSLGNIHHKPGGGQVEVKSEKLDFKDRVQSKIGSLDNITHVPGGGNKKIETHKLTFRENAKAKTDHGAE

Cc1ccc2sc(-c3ccc4sc(-c5ccc(N)cc5)nc4c3)nc2c1S(=O)(=O)[O-].[Na+] [primulin]
activity as ligand (tangle fragments): active ligands | competition with / displacement of other ligands at tangles (tangle fragments): displace this from tangles | competition with / displacement of other ligands at tangles (tangle fragments; listed as compound 1a): displace compound 1b at tangles | inhibition of tau-tau binding (tau-tau binding): no inhibitory activity
